In patent US7279502B2, “Polyamine analog conjugates and quinone conjugates as therapies for cancers and prostate diseases” (Cellgate, Inc., priority 1999, dated 2007):
Read-outs that look alike come from different tables or passages of the source.

Tests used:
[1] = system: human prostate adenocarcinoma cell line PC-3; assay: MTT assay, quinones, PC-3; type: cell-based; details: read-out: ID50 PC-3
Method: (§1) Cell Culture: The human lung adenocarcinoma cell line, A549, and human prostatic cancer cell line, DUPRO, were a gift from Dr. M. Eileen Dolan, University of Chicago, Department of Medicine. A549 was grown in Ham's F-12K medium (Fisher Scientific, Itasca, Ill.) supplemented with 10% fetal bovine serum and 2 mM L-glutamine. DUPRO was grown in RPMI-1640 supplemented with 10% fetal bovine serum. The human colon carcinoma cell line, HT29, and the human breast carcinoma cell line, MCF7, were obtained from the American Type Culture Collection, Rockville, Md. HT29 cells were grown in McCoy's 5A medium (Gibco, BRL, Gaithersburg, Md.) supplemented with 10% fetal bovine serum. MCF7 cells were grown in Richter's Improved Modified Eagle's medium supplemented with 10% fetal bovine serum and 2.2 g/L sodium bicarbonate. The human prostate adenocarcinoma cell lines, LNCAP, PC-3 and DU145, were gifts from Dr. George Wilding, University of Wisconsin Comprehensive Cancer Center and the Department of Medicine, and were grown in Dulbecco's Modified Eagle's medium supplemented with a 5% fetal bovine serum. The malignant glioma cell line, U251MG NCI was obtained from the brain tumor tissue bank at the University of California, San Francisco Department of Neurosurgery, and was grown in Dulbecco's Modified Eagle's medium supplemented wth 10% fetal bovine serum. DUPRO, A549 and MCF7 cells were grown in 100 units/mL penicillin and 100 μg/mL streptomycin. HT29 and U251MG NCI cells were grown in 50 μg/mL gentamycin. LNCAP, PC-3 and DU145 cells were maintained in 1% antibiotic antimycotic solution (Sigma, St. Louis, Mo.). All cell cultures were maintained at 37° C. in 5% CO2/95% humidified air.
(§2) MTT assay. Exponentially growing monolayer cells were plated in 96 well plates at a density of 500 cells/well and allowed to grow for 24 h. Serially diluted drug solutions were added such that the final drug concentrations in the treatment media were between 0 and 35 μM. Cells were incubated with drug at either 4 hr or 72 hr. After 4 hr and 72 hr treatment, drugs were removed, fresh media (without) drug (100 uL) was added and cells were incubated for 6 days. After six days, 25 μL of a Dulbecco's phosphate-buffered saline solution containing 5 mg/mL of MTT (Thiazolyl blue) (Sigma) was added to each well and incubated for 4 h at 37° C. Then 100 μL of lysis buffer (20% sodium dodecyl sulfate, 50% N,N-dimethylformamide and 0.8% acetic acid, pH 4.7) was added to each well and incubated for an additional 22 h. A microplate reader (E max, Molecular Devices, Sunnyvale, Calif.) set at 570 nm was used to determine the optical density. Results were plotted as a ratio of the optical density in drug treated wells to the optical density in wells treated with vehicle alone. Plotting and estimation of ID50 values were accomplished with manufacturer supplied software. The data is presented below in Tables 3, 4, 5 and 6.

[2] = system: human breast carcinoma cell line, MCF7; assay: MTT assay, quinones, MCF7; type: cell-based; details: Table 4, treatment time not given in cell, read-out: ID50 Breast MCF7
Method: as §1, §2

[3] = Table 3, treatment time not given in cell

| Compound | IC50 [1, 3] [µM] | IC50 ([1]; Table 5, non-quinone structure) [µM] | IC50 [2] [µM] |
| --- | --- | --- | --- |
| O=C1C=C(OCCCCCNc2c3ccccc3nc3ccccc23)c2ccccc2C1=O [SL-11059, Acridine-quinone] | 4.3 |  |  |
| N#Cc1ccc(OCCCCCCOC2=CC(=O)C(=O)c3ccccc32)cc1 [SL-11062] | 1.71 |  |  |
| CN1CCN(c2ccc3nc(-c4ccc5nc(-c6ccc(O)cc6)[nH]c5c4)[nH]c3c2)CC1 [SL-11063] |  | > 31.2 |  |
| O=C1C=C(OCCCCCCOC2=CC(=O)c3ccccc3C2=O)c2ccccc2C1=O [SL-11065] | 1.4 |  |  |
| O=C1C=C(OCCCCCCOc2ccc(OC3OC(CO)C(O)C(O)C3O)cc2)c2ccccc2C1=O (stereo not shown) [SL-11066] | > 31.2 |  |  |
| O=C1C=C(OCCCCCCOc2ccccc2)c2ccccc2C1=O [SL-11068] | 1.5 |  |  |
| CN(C)c1cccc(OC(=O)CCCCOC2=CC(=O)C(=O)c3ccccc32)c1 [SL-11074] | 4.6 |  |  |
| NCCCCCC(=O)OCCCCCCOC1=CC(=O)C(=O)c2ccccc21 [SL-11075] | 2 |  |  |
| CCNC(=O)CCNC(=O)CCCNC(=O)CCNC(=O)CCCCOC1=CC(=O)C(=O)c2ccccc21 [SL-11085] | > 31.2 |  |  |
| CCCCN(CC1=CC(=O)C(=O)c2ccccc21)C(C)=O [SL-11087] | 2.4 |  | 4 |
| CCCCN(CC1=CC(=O)C(=O)c2ccccc21)C(=O)C(F)(F)F [SL-11088] | > 31.2 |  | > 31.2 |
